Source: the NIST ThermoML archive (doi:10.1021/acs.jced.5b00242)
± gives the expanded uncertainty stated by the source.

Columns and labels:
[1] = xn = mol fraction of the nth substance listed; conditions: 101 kPa, Liquid, x1 = 1; for mass density: Vibrating tube method
[2] = refractive index (Na D-line) (dimensionless); xn = mol fraction of the nth substance listed; conditions: 101 kPa, Liquid, Standard Abbe refractometry, x1 = 1

Row | Structure (SMILES) | mass density ([1]; 293.15 K) [kg/m3] | mass density ([1]; 298.15 K) [kg/m3] | mass density ([1]; 303.15 K) [kg/m3] | mass density ([1]; 308.15 K) [kg/m3] | mass density ([1]; 313.15 K) [kg/m3] | mass density ([1]; 318.15 K) [kg/m3] | mass density ([1]; 323.15 K) [kg/m3] | mass density ([1]; 328.15 K) [kg/m3] | mass density ([1]; 333.15 K) [kg/m3] | mass density ([1]; 338.15 K) [kg/m3] | mass density ([1]; 343.15 K) [kg/m3] | mass density ([1]; 348.15 K) [kg/m3] | mass density ([1]; 353.15 K) [kg/m3] | refractive index ([2]; 293.15 K) | refractive index ([2]; 298.15 K) | refractive index ([2]; 303.15 K) | refractive index ([2]; 308.15 K) | refractive index ([2]; 313.15 K) | refractive index ([2]; 318.15 K) | refractive index ([2]; 323.15 K) | also measured
1 | CCn1cc[n+](C)c1.N#C[C-](C#N)C#N [1-ethyl-3-methyl-1H-imidazolium tricyanomethanide] + CCn1cc[n+](C)c1.C[C@H](N)C(=O)[O-] | 1084.6 ± 15 | 1081 ± 15 | 1077.5 ± 15 | 1073.9 ± 15 | 1070.4 ± 15 | 1067.1 ± 15 | 1063.7 ± 15 | 1060.3 ± 15 | 1056.9 ± 15 | 1053.6 ± 15 | 1050.2 ± 15 | 1046.8 ± 15 | 1043.4 ± 15 | 1.51454 ± 0.00063 | 1.51286 ± 0.00063 | 1.51114 ± 0.00063 | 1.50938 ± 0.00063 | 1.50765 ± 0.00063 | 1.50595 ± 0.00063 | 1.50419 ± 0.00063 | viscosity ([1]; 293.15 K, Stabinger Viscometer): 16.62 ± 0.7 mPa·s; viscosity ([1]; 298.15 K, Stabinger Viscometer): 14.19 ± 0.6 mPa·s; viscosity ([1]; 303.15 K, Stabinger Viscometer): 12.18 ± 0.51 mPa·s; viscosity ([1]; 308.15 K, Stabinger Viscometer): 10.58 ± 0.44 mPa·s; viscosity ([1]; 313.15 K, Stabinger Viscometer): 9.02 ± 0.38 mPa·s; viscosity ([1]; 318.15 K, Stabinger Viscometer): 8.2 ± 0.34 mPa·s; viscosity ([1]; 323.15 K, Stabinger Viscometer): 7.31 ± 0.31 mPa·s; viscosity ([1]; 328.15 K, Stabinger Viscometer): 6.56 ± 0.28 mPa·s; viscosity ([1]; 333.15 K, Stabinger Viscometer): 5.72 ± 0.24 mPa·s; viscosity ([1]; 338.15 K, Stabinger Viscometer): 5.38 ± 0.23 mPa·s; viscosity ([1]; 343.15 K, Stabinger Viscometer): 4.91 ± 0.21 mPa·s; viscosity ([1]; 348.15 K, Stabinger Viscometer): 4.5 ± 0.19 mPa·s; viscosity ([1]; 353.15 K, Stabinger Viscometer): 3.98 ± 0.17 mPa·s; refractive index ([2]; 328.15 K): 1.50255 ± 0.00063; refractive index ([2]; 333.15 K): 1.50087 ± 0.00063; refractive index ([2]; 338.15 K): 1.49921 ± 0.00063; refractive index ([2]; 343.15 K): 1.49757 ± 0.00063; refractive index ([2]; 348.15 K): 1.49593 ± 0.00063; refractive index ([2]; 353.15 K): 1.49429 ± 0.00063
2 | CCn1cc[n+](C)c1.N#C[C-](C#N)C#N [1-ethyl-3-methyl-1H-imidazolium tricyanomethanide] + CCn1cc[n+](C)c1.O=C([O-])[C@@H]1CCCN1 | 1084.6 ± 11 | 1081 ± 11 | 1077.5 ± 11 | 1073.9 ± 11 | 1070.4 ± 11 | 1067.1 ± 11 | 1063.7 ± 11 | 1060.3 ± 11 | 1056.9 ± 11 | 1053.6 ± 11 | 1050.2 ± 10 | 1046.8 ± 10 | 1043.4 ± 10 | 1.51454 ± 0.00063 | 1.51286 ± 0.00063 | 1.51114 ± 0.00063 | 1.50938 ± 0.00063 | 1.50765 ± 0.00063 | 1.50595 ± 0.00063 | 1.50419 ± 0.00063 | viscosity ([1]; 293.15 K, Stabinger Viscometer): 16.62 ± 0.7 mPa·s; viscosity ([1]; 298.15 K, Stabinger Viscometer): 14.19 ± 0.6 mPa·s; viscosity ([1]; 303.15 K, Stabinger Viscometer): 12.18 ± 0.51 mPa·s; viscosity ([1]; 308.15 K, Stabinger Viscometer): 10.58 ± 0.44 mPa·s; viscosity ([1]; 313.15 K, Stabinger Viscometer): 9.02 ± 0.38 mPa·s; viscosity ([1]; 318.15 K, Stabinger Viscometer): 8.2 ± 0.34 mPa·s; viscosity ([1]; 323.15 K, Stabinger Viscometer): 7.31 ± 0.31 mPa·s; viscosity ([1]; 328.15 K, Stabinger Viscometer): 6.56 ± 0.28 mPa·s; viscosity ([1]; 333.15 K, Stabinger Viscometer): 5.72 ± 0.24 mPa·s; viscosity ([1]; 338.15 K, Stabinger Viscometer): 5.38 ± 0.23 mPa·s; viscosity ([1]; 343.15 K, Stabinger Viscometer): 4.91 ± 0.21 mPa·s; viscosity ([1]; 348.15 K, Stabinger Viscometer): 4.5 ± 0.19 mPa·s; viscosity ([1]; 353.15 K, Stabinger Viscometer): 3.98 ± 0.17 mPa·s; refractive index ([2]; 328.15 K): 1.50255 ± 0.00063; refractive index ([2]; 333.15 K): 1.50087 ± 0.00063; refractive index ([2]; 338.15 K): 1.49921 ± 0.00063; refractive index ([2]; 343.15 K): 1.49757 ± 0.00063; refractive index ([2]; 348.15 K): 1.49593 ± 0.00063; refractive index ([2]; 353.15 K): 1.49429 ± 0.00063
3 | CCn1cc[n+](C)c1.N#C[C-](C#N)C#N [1-ethyl-3-methyl-1H-imidazolium tricyanomethanide] + CCn1cc[n+](C)c1.NCC(=O)[O-] | 1084.6 ± 13 | 1081 ± 13 | 1077.5 ± 13 | 1073.9 ± 13 | 1070.4 ± 13 | 1067.1 ± 13 | 1063.7 ± 13 | 1060.3 ± 13 | 1056.9 ± 13 | 1053.6 ± 13 | 1050.2 ± 13 | 1046.8 ± 13 | 1043.4 ± 12 | 1.51454 ± 0.00063 | 1.51286 ± 0.00063 | 1.51114 ± 0.00063 | 1.50938 ± 0.00063 | 1.50765 ± 0.00063 | 1.50595 ± 0.00063 | 1.50419 ± 0.00063 | viscosity ([1]; 293.15 K, Stabinger viscometer): 16.62 ± 0.7 mPa·s; viscosity ([1]; 298.15 K, Stabinger viscometer): 14.19 ± 0.6 mPa·s; viscosity ([1]; 303.15 K, Stabinger viscometer): 12.18 ± 0.51 mPa·s; viscosity ([1]; 308.15 K, Stabinger viscometer): 10.58 ± 0.44 mPa·s; viscosity ([1]; 313.15 K, Stabinger viscometer): 9.02 ± 0.38 mPa·s; viscosity ([1]; 318.15 K, Stabinger viscometer): 8.2 ± 0.34 mPa·s; viscosity ([1]; 323.15 K, Stabinger viscometer): 7.31 ± 0.31 mPa·s; viscosity ([1]; 328.15 K, Stabinger viscometer): 6.56 ± 0.28 mPa·s; viscosity ([1]; 333.15 K, Stabinger viscometer): 5.72 ± 0.24 mPa·s; viscosity ([1]; 338.15 K, Stabinger viscometer): 5.38 ± 0.23 mPa·s; viscosity ([1]; 343.15 K, Stabinger viscometer): 4.91 ± 0.21 mPa·s; viscosity ([1]; 348.15 K, Stabinger viscometer): 4.5 ± 0.19 mPa·s; viscosity ([1]; 353.15 K, Stabinger viscometer): 3.98 ± 0.17 mPa·s; refractive index ([2]; 328.15 K): 1.50255 ± 0.00063; refractive index ([2]; 333.15 K): 1.50087 ± 0.00063; refractive index ([2]; 338.15 K): 1.49921 ± 0.00063; refractive index ([2]; 343.15 K): 1.49757 ± 0.00063; refractive index ([2]; 348.15 K): 1.49593 ± 0.00063; refractive index ([2]; 353.15 K): 1.49429 ± 0.00063
4 | CCn1cc[n+](C)c1.N#C[C-](C#N)C#N [1-ethyl-3-methyl-1H-imidazolium tricyanomethanide] + CCn1cc[n+](C)c1.NCCS(=O)(=O)[O-] | 1084.6 ± 15 | 1081 ± 15 | 1077.5 ± 15 | 1073.9 ± 15 | 1070.4 ± 15 | 1067.1 ± 15 | 1063.7 ± 15 | 1060.3 ± 15 | 1056.9 ± 15 | 1053.6 ± 15 | 1050.2 ± 15 | 1046.8 ± 15 | 1043.4 ± 15 | 1.51454 ± 0.00063 | 1.51286 ± 0.00063 | 1.51114 ± 0.00063 | 1.50938 ± 0.00063 | 1.50765 ± 0.00063 | 1.50595 ± 0.00063 | 1.50419 ± 0.00063 | viscosity ([1]; 293.15 K, Stabinger Viscometer): 16.62 ± 0.7 mPa·s; viscosity ([1]; 298.15 K, Stabinger Viscometer): 14.19 ± 0.6 mPa·s; viscosity ([1]; 303.15 K, Stabinger Viscometer): 12.18 ± 0.51 mPa·s; viscosity ([1]; 308.15 K, Stabinger Viscometer): 10.58 ± 0.44 mPa·s; viscosity ([1]; 313.15 K, Stabinger Viscometer): 9.02 ± 0.38 mPa·s; viscosity ([1]; 318.15 K, Stabinger Viscometer): 8.2 ± 0.34 mPa·s; viscosity ([1]; 323.15 K, Stabinger Viscometer): 7.31 ± 0.31 mPa·s; viscosity ([1]; 328.15 K, Stabinger Viscometer): 6.56 ± 0.28 mPa·s; viscosity ([1]; 333.15 K, Stabinger Viscometer): 5.72 ± 0.24 mPa·s; viscosity ([1]; 338.15 K, Stabinger Viscometer): 5.38 ± 0.23 mPa·s; viscosity ([1]; 343.15 K, Stabinger Viscometer): 4.91 ± 0.21 mPa·s; viscosity ([1]; 348.15 K, Stabinger Viscometer): 4.5 ± 0.19 mPa·s; viscosity ([1]; 353.15 K, Stabinger Viscometer): 3.98 ± 0.17 mPa·s; refractive index ([2]; 328.15 K): 1.50255 ± 0.00063; refractive index ([2]; 333.15 K): 1.50087 ± 0.00063; refractive index ([2]; 338.15 K): 1.49921 ± 0.00063; refractive index ([2]; 343.15 K): 1.49757 ± 0.00063; refractive index ([2]; 348.15 K): 1.49593 ± 0.00063; refractive index ([2]; 353.15 K): 1.49429 ± 0.00063
